Test results from patent publication US7998978B2 (Pfizer Inc., priority 2006, dated 2011).
pKi: −log10 of the molar value.

Target: T1, JNK1α1 (Homo sapiens, UniProt P45983)
T1 construct: catalytic domain containing amino acids 1-364 and N-terminal hexahistidine tag; hexahistidine (His6) (N); made in house; host or cells: E. coli BL21 (DE3)
Experiment: Coupled spectrophotometric (PK/LDH) JNK1α1 assay: % inhibition and Ki determination
Type: biochemical
Conditions: JNK-1
Experimental: % Inhibition and Ki Determination
A coupled spectrophotometric assay, coupling JNK1α1 activity to the oxidation of β-NADH to NAD+ through the action of pyruvate kinase (PK) and lactic dehydrogenase (LDH), was used to determine the potency (percent inhibition at 1 or 10 μM or Ki) of compounds against JNK1α1 (Genbank Accession Number: L26318). […] The reaction was monitored by following the decrease in absorbance at 340 nm. The initial reaction rate was determined by the slope of the change in absorbance. To calculate percent inhibition the rate of the reaction in the presence of 1 or 10 μM compound was compared to the rate of the reaction with only DMSO multiplied by 100 percent. Note, the background rate of the above reaction in the presence of 10 μM PHA-00738186 was subtracted from all rates. […] Y=(−X+Eo−(Ki*(1+A/Km))+((X−Eo+(Ki*(1+A/Km)))^2+4*Eo*(Ki*(1+A/Km)))^0.5)*(Vm*A/(Km+A)/(2*Eo)) Formula: • Parameters: Eo, Ki, A, Km, Vo • Y is initial reaction velocity; • X is inhibitor concentration; • A is [ATP]; • Ki is inhibition constant; • Vm is Vmax; • Eo is total (initial) enzyme concentration; • Km is ATP Km;
The compounds were prepared in 100% DMSO at a 40× concentration. For percent inhibition experiments this would be 400 or 40 μM for 10 and 1 μM final concentration, respectively. For the Ki determination 3× serial dilutions were made starting at 4 mM (100 μM at 1×) in DMSO. A total of 11 concentrations were used for the analysis. The compounds were added to the reaction plate first. Next, a solution containing the HEPES, MgCl2, DTT, peptide substrate, NADH, PEP, PK/LDH enzyme, and JNK1α1—364nHis enzyme was added to the assay plate. The plate was incubated at room temperature for 15 minutes. Then the plate was warmed to 30° C. for 5 minutes. The reaction was initiated with the addition of ATP. The reaction was run in a plate reader at 30° C. for 20 minutes with absorbance readings made about every 10 seconds.
The column with “#” heading refers to compound number as exemplified in the Examples section. The column with “Ki” heading refers to Ki (in nM). The column with “% Inhibition” heading refers to percent inhibition of JNK-1 at 1 μM or 10 μM (in %) unless otherwise stated. ND refers to no data was taken.

T1 sequence (P45983 1-364): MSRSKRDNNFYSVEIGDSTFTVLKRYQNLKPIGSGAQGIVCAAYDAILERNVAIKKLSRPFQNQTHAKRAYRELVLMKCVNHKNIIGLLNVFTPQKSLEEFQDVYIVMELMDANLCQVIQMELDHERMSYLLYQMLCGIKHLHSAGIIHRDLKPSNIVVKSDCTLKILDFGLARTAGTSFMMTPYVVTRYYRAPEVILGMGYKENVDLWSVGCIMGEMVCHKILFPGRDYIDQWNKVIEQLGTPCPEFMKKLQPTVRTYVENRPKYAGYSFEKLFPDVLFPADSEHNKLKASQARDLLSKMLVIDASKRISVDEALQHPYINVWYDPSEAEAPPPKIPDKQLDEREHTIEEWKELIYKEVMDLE

SMILES	pKi
O=C(CCc1cncnc1)Nc1cc2cc(-c3cn[nH]c3)ccc2cn1 [Example 29, N-[6-(1H-pyrazol-4-yl)isoquinolin-3-yl]-3-pyrimidin-5-ylpropanamide]	7.66
O=C(Cn1cc(-c2ccccn2)nn1)Nc1cc2cc(-c3cn[nH]c3)ccc2cn1 [Example 30, N-[6-(1H-pyrazol-4-yl)isoquinolin-3-yl]-2-(4-pyridin-2-yl-1H-1,2,3-triazol-1-yl)acetamide]	7.74
O=C(CN1N=C(c2ccccc2)CCC1=O)Nc1cc2cc(-c3cn[nH]c3)ccc2cn1 [Example 34, 2-(6-oxo-3-phenyl-5,6-dihydropyridazin-1(4H)-yl)-N-[6-(1H-pyrazol-4-yl)isoquinolin-3-yl]acetamide]	7.77
O=C(Nc1cc2cc(-c3cn[nH]c3)ccc2cn1)C1COc2ccccc2C1 (stereo not drawn) [Example 38, N-[6-(1H-pyrazol-4-yl)isoquinolin-3-yl]chromane-3-carboxamide]	7.85
COc1ccc(CCCC(=O)Nc2cc3cc(-c4cn[nH]c4)ccc3cn2)cc1 [Example 41, 4-(4-methoxyphenyl)-N-[6-(1H-pyrazol-4-yl)isoquinolin-3-yl]butanamide]	7.85
O=C(CCc1ccc(F)cc1)Nc1cc2cc(-c3cn[nH]c3)ccc2cn1 [Example 44, 3-(4-fluorophenyl)-N-[6-(1H-pyrazol-4-yl)isoquinolin-3-yl]propanamide]	7.96
O=C(Cc1ccc(C(F)(F)F)cc1)Nc1cc2cc(-c3cn[nH]c3)ccc2cn1 [Example 45, N-[6-(1H-pyrazol-4-yl)isoquinolin-3-yl]-2-[4-(trifluoromethyl)phenyl]acetamide]	7.68
COc1ccc2c(c1)CCC2C(=O)Nc1cc2cc(-c3cn[nH]c3)ccc2cn1 (stereo not drawn) [Example 47, 5-methoxy-N-[6-(1H-pyrazol-4-yl)isoquinolin-3-yl]indane-1-carboxamide]	< 7.30
O=C(Cn1cnnn1)Nc1cc2cc(-c3cn[nH]c3)ccc2cn1 [Example 48, N-[6-(1H-pyrazol-4-yl)isoquinolin-3-yl]-2-(1H-tetrazol-1-yl)acetamide]	7.82
Cn1c(=O)c2c(ncn2CC(=O)Nc2cc3cc(-c4cn[nH]c4)ccc3cn2)n(C)c1=O [Example 52, 2-(1,3-dimethyl-2,6-dioxo-1,2,3,6-tetrahydro-7H-purin-7-yl)-N-[6-(1H-pyrazol-4-yl)isoquinolin-3-yl]acetamide]	7.82
COc1ccccc1CC(=O)Nc1cc2cc(-c3cn[nH]c3)ccc2cn1 [Example 53, 2-(2-methoxyphenyl)-N-[6-(1H-pyrazol-4-yl)isoquinolin-3-yl]acetamide]	7.68
O=C(CNC(=O)c1ccc(O)c(Cl)c1)Nc1cc2cc(-c3cn[nH]c3)ccc2cn1 [Example 56, 3-chloro-4-hydroxy-N-(2-oxo-2-{[6-(1H-pyrazol-4-yl)isoquinolin-3-yl]amino}ethyl)benzamide]	7.77
CNC(=O)c1ccc2cnc(N[C@H]3CC[C@H](O)CC3)nc2c1 [Example 58, 2-[(trans-4-hydroxycyclohexyl)amino]-N-methylquinazoline-7-carboxamide]	6.58

Stronger by pKi, values ahead:

pKi	SMILES
8.52	CC(C)(C)OC(=O)NC(CC(=O)Nc1cc2cc(-c3cn[nH]c3)ccc2cn1)c1c(F)cccc1F (stereo not drawn) [Example 31, tert-butyl (1-(2,6-difluorophenyl)-3-oxo-3-{[6-(1H-pyrazol-4-yl)isoquinolin-3-yl]amino}propyl)carbamate]
8.10	O=C(COc1cccc(-c2cnccn2)c1)Nc1cc2cc(-c3cn[nH]c3)ccc2cn1 [Example 32, 2-(3-pyrazin-2-ylphenoxy)-N-[6-(1H-pyrazol-4-yl)isoquinolin-3-yl]acetamide]
8.15	O=C(Cc1c(F)cccc1C(F)(F)F)Nc1cc2cc(-c3cn[nH]c3)ccc2cn1 [Example 33, N-[6-(1H-pyrazol-4-yl)isoquinolin-3-yl]-2-[2-(trifluoromethyl-6-fluoro)phenyl]acetamide]
8.10	O=C(CNC(=O)C1(c2ccccc2)CC1)Nc1cc2cc(-c3cn[nH]c3)ccc2cn1 [Example 35, N-(2-oxo-2-{[6-(1H-pyrazol-4-yl)isoquinolin-3-yl]amino)ethyl)-1-phenylcyclopropanecarboxamide]
8.10	CC(C)(C)OC(=O)N1C[C@H](C(=O)Nc2cc3cc(-c4cn[nH]c4)ccc3cn2)[C@@H](c2ccccc2)C1 [Example 36]
8.70	O=C(Cn1nc(C(F)(F)F)c2c1CCCC2)Nc1cc2cc(-c3cn[nH]c3)ccc2cn1 [Example 37, N-[6-(1H-pyrazol-4-yl)isoquinolin-3-yl]-2-[3-(trifluoromethyl)-4,5,6,7-tetrahydro-1H-indazol-1-yl]acetamide]
8.15	O=C(CCc1ccc(C(F)(F)F)cc1)Nc1cc2cc(-c3cn[nH]c3)ccc2cn1 [Example 39, N-[6-(1H-pyrazol-4-yl)isoquinolin-3-yl]-3-[4-(trifluoromethyl)phenyl]propanamide]
8.10	CN(C)C(=O)CCC(=O)Nc1cc2cc(-c3cn[nH]c3)ccc2cn1 [Example 40, N,N-dimethyl-N′-[6-(1H-pyrazol-4-yl)isoquinolin-3-yl]succinamide]
8.30	O=C(CCc1cccc(C(F)(F)F)c1)Nc1cc2cc(-c3cn[nH]c3)ccc2cn1 [Example 42, N-[6-(1H-pyrazol-4-yl)isoquinolin-3-yl]-3-[3-(trifluoromethyl)phenyl]propanamide]
8.10	Cc1cnc(C(=O)NCC(=O)Nc2cc3cc(-c4cn[nH]c4)ccc3cn2)cn1 [Example 43, 5-methyl-N-(2-oxo-2-{[6-(1H-pyrazol-4-yl)isoquinolin-3-yl]amino}ethyl)pyrazine-2-carboxamide]
8.30	Cc1sc(-c2ccccc2)nc1CC(=O)Nc1cc2cc(-c3cn[nH]c3)ccc2cn1 [Example 46, 2-(5-methyl-2-phenyl-1,3-thiazol-4-yl)-N-[6-(1H-pyrazol-4-yl)isoquinolin-3-yl]acetamide]
8.52	O=C(COCc1ccccc1)Nc1cc2cc(-c3cn[nH]c3)ccc2cn1 [Example 49, 2-(benzyloxy)-N-[6-(1H-pyrazol-4-yl)isoquinolin-3-yl]acetamide]
8.52	CC(C)c1ccc(OCC(=O)Nc2cc3cc(-c4cn[nH]c4)ccc3cn2)cc1 [Example 50, 2-(4-isopropylphenoxy)-N-[6-(1H-pyrazol-4-yl)isoquinolin-3-yl]acetamide]
8.10	Cc1oc(-c2ccccc2)nc1CC(=O)Nc1cc2cc(-c3cn[nH]c3)ccc2cn1 [Example 51, 2-(5-methyl-2-phenyl-1,3-oxazal-4-yl)-N-[6-(1H-pyrazol-4-yl)isoquinolin-3-yl]acetamide]
8.10	O=C(Nc1cc2cc(-c3cn[nH]c3)ccc2cn1)[C@H]1C[C@@H]1c1ccccc1 [Example 54, (1S,2S)-2-phenyl-N-[6-(1H-pyrazol-4-yl)isoquinolin-3-yl]cyclopropanecarboxamide]
8.30	O=C(CC(c1ccccc1)c1ccccc1)Nc1cc2cc(-c3cn[nH]c3)ccc2cn1 [Example 55, 3,3-diphenyl-N-[6-(1H-pyrazol-4-yl)isoquinolin-3-yl]propanamide]
8.40	CC(C)[C@@H]1CC[C@@H](C)C[C@H]1OCC(=O)Nc1cc2cc(-c3cn[nH]c3)ccc2cn1 [Example 57, 2-{[(1R,2S,5R)-2-isopropyl-5-methylcyclohexyl]oxy}-N-[6-(1H-pyrazol-4-yl)isoquinolin-3-yl]acetamide]
